According to patent US7459414B2, “Herbicides” (Syngenta Crop Protection, Inc., priority 2002, dated 2008):

How the values were obtained:
Type in all cases: in vivo
Alopecurus (Alo) [1] = experiment: Example B1 pre-emergence herbicidal action (comparison test); parameters: key: 1=total damage; 9=no action; conditions: 500 g of active ingredient/ha; 3 weeks after application; scale of nine ratings, 1 to 4 = good to very good action
Experimental: (§1) Monocotyledonous and dicotyledonous weeds are sown in plastics pots in standard soil. Immediately after sowing, the test substances are applied in the form of an aqueous suspension (prepared from a 25% wettable powder (Example F3, b)) or in the form of an emulsion (prepared from a 25% emulsifiable concentrate (Example F1, c)) (500 liters of water/ha). The rate of application is 500 g of active substance/ha. The test plants are then grown in the greenhouse under optimum conditions. The evaluation is carried out 3 weeks after application, using a scale of nine ratings (1=total damage, 9=no action). Ratings of from 1 to 4 (especially from 1 to 3) indicate good to very good herbicidal action. Test plants: Alopecurus (Alo), Avena (Ave), Lolium (Lol), Setaria (Set), Panicum (Pan), Sorghum (Sor), Digitaria (Dig), Echinochloa (Ech) and Brachiaria (Bra).

Avena (Ave) [2] = experiment: as above; parameters: key: 1=total damage; 9=no action; conditions: 500 g of active ingredient/ha; 3 weeks after application; scale of nine ratings, 1 to 4 = good to very good action
Experimental: as §1

Brachiaria (Bra) [3] = experiment: as above; parameters: key: 1=total damage; 9=no action; conditions: 500 g of active ingredient/ha; 3 weeks after application; scale of nine ratings, 1 to 4 = good to very good action
Experimental: as §1

Echinochloa (Ech) = experiment: as above; parameters: key: 1=total damage; 9=no action; conditions: 500 g of active ingredient/ha; 3 weeks after application; scale of nine ratings, 1 to 4 = good to very good action
Experimental: as §1

Lolium (Lol) [4] = experiment: as above; parameters: key: 1=total damage; 9=no action; conditions: 500 g of active ingredient/ha; 3 weeks after application; scale of nine ratings, 1 to 4 = good to very good action
Experimental: as §1

Panicum (Pan) [5] = experiment: as above; parameters: key: 1=total damage; 9=no action; conditions: 500 g of active ingredient/ha; 3 weeks after application; scale of nine ratings, 1 to 4 = good to very good action
Experimental: as §1

Setaria (Set) [6] = experiment: as above; parameters: key: 1=total damage; 9=no action; conditions: 500 g of active ingredient/ha; 3 weeks after application; scale of nine ratings, 1 to 4 = good to very good action
Experimental: as §1

Sorghum (Sor) [7] = experiment: as above; parameters: key: 1=total damage; 9=no action; conditions: 500 g of active ingredient/ha; 3 weeks after application; scale of nine ratings, 1 to 4 = good to very good action
Experimental: as §1

Digitaria (Dig) [8] = experiment: as above; conditions: 500 g of active ingredient/ha; 3 weeks after application; scale of nine ratings, 1 to 4 = good to very good action
Experimental: as §1

Alopecurus (Alo) [9] = experiment: Example B2 post-emergence herbicidal action (comparison test); parameters: key: 1=total damage; 9=no action; conditions: 250 g of active ingredient/ha; 3- to 6-leaf stage; 3 weeks after application; scale of nine ratings, 1 to 4 = good to very good action
Experimental: (§2) Monocotyledonous and dicotyledonous weeds are grown in standard soil in plastics pots under greenhouse conditions. The test substances are applied to the test plants at the 3- to 6-leaf stage. […] suspension (prepared from a 25% wettable powder (Example F3, b)) or in the form of an emulsion (prepared from a 25% emulsifiable concentrate (Example F1, c)) (500 liters of water/ha). The evaluation is carried out 3 weeks after application, using a scale of nine ratings (1=total damage, 9=no action). Ratings of from 1 to 4 (especially from 1 to 3) indicate good to very good herbicidal action. Test plants: Alopecurus (Alo), Avena (Ave), Lolium (Lol), Setaria (Set), Panicum (Pan), Sorghum (Sor), Digitaria (Dig), Echinocloa (Ech) and Brachiaria (Bra).

Avena (Ave) [10] = experiment: as above; parameters: key: 1=total damage; 9=no action; conditions: 250 g of active ingredient/ha; 3- to 6-leaf stage; 3 weeks after application; scale of nine ratings, 1 to 4 = good to very good action
Experimental: as §2

Brachiaria (Bra) [11] = experiment: as above; parameters: key: 1=total damage; 9=no action; conditions: 250 g of active ingredient/ha; 3- to 6-leaf stage; 3 weeks after application; scale of nine ratings, 1 to 4 = good to very good action
Experimental: as §2

Echinocloa (Ech) = experiment: as above; parameters: key: 1=total damage; 9=no action; conditions: 250 g of active ingredient/ha; 3- to 6-leaf stage; 3 weeks after application; scale of nine ratings, 1 to 4 = good to very good action
Experimental: as §2

Lolium (Lol) [12] = experiment: as above; parameters: key: 1=total damage; 9=no action; conditions: 250 g of active ingredient/ha; 3- to 6-leaf stage; 3 weeks after application; scale of nine ratings, 1 to 4 = good to very good action
Experimental: as §2

Panicum (Pan) [13] = experiment: as above; parameters: key: 1=total damage; 9=no action; conditions: 250 g of active ingredient/ha; 3- to 6-leaf stage; 3 weeks after application; scale of nine ratings, 1 to 4 = good to very good action
Experimental: as §2

Setaria (Set) [14] = experiment: as above; parameters: key: 1=total damage; 9=no action; conditions: 250 g of active ingredient/ha; 3- to 6-leaf stage; 3 weeks after application; scale of nine ratings, 1 to 4 = good to very good action
Experimental: as §2

Sorghum (Sor) [15] = experiment: as above; parameters: key: 1=total damage; 9=no action; conditions: 250 g of active ingredient/ha; 3- to 6-leaf stage; 3 weeks after application; scale of nine ratings, 1 to 4 = good to very good action
Experimental: as §2

Digitaria (Dig) [16] = experiment: as above; conditions: 250 g of active ingredient/ha; 3- to 6-leaf stage; 3 weeks after application; scale of nine ratings, 1 to 4 = good to very good action
Experimental: as §2

Avena (Ave) [17] = experiment: Example B4 post-emergence herbicidal action, MERGE oil additive 0.7% (Table B4); parameters: key: 1=total damage; 9=no action; conditions: 500 g of active substance per hectare; applied at 3- to 6-leaf stage; MERGE oil additive 0.7% by weight of the spray mixture; evaluation 3 weeks after application; scale of nine ratings
Experimental: (§3) Monocotyledonous and dicotyledonous weeds are grown in standard soil in plastics pots under greenhouse conditions. The test substances are applied to the test plants at the 3- to 6-leaf stage. The test substances are applied at a rate of application of 500 g of active substance per hectare in the form of an aqueous suspension (prepared from a 25% wettable powder (Example F3, b)) or in the form of an emulsion (prepared from a 25% emulsifiable concentrate (Example F1, c)) (500 liters of water/ha). The evaluation is carried out 3 weeks after application, using a scale of nine ratings (1=total damage, 9=no action). Ratings of from 1 to 4 (especially from 1 to 3) indicate good to very good herbicidal action. Herbicidal Action After the Emergence of the Plants (Post-emergence Action) of Compounds of the Present Invention (for Description See Example B2) Test plants: Avena (Ave), Lolium (Lol), Setaria (Set).

Lolium (Lol) [18] = experiment: as above; parameters: key: 1=total damage; 9=no action; conditions: 500 g of active substance per hectare; applied at 3- to 6-leaf stage; MERGE oil additive 0.7% by weight of the spray mixture; evaluation 3 weeks after application; scale of nine ratings
Experimental: as §3

Setaria (Set) [19] = experiment: as above; parameters: key: 1=total damage; 9=no action; conditions: 500 g of active substance per hectare; applied at 3- to 6-leaf stage; MERGE oil additive 0.7% by weight of the spray mixture; evaluation 3 weeks after application; scale of nine ratings
Experimental: as §3

Avena (Ave) [20] = experiment: Example B3 pre-emergence herbicidal action, MERGE oil additive 0.7% (Table B3); parameters: key: 1=total damage; 9=no action; conditions: 500 g of active substance/ha; MERGE oil additive 0.7% by weight of the spray mixture; evaluation 3 weeks after application; scale of nine ratings
Experimental: (§4) Monocotyledonous and dicotyledonous weeds are sown in standard soil in plastics pots. Immediately after sowing, the test substances are applied in the form of an aqueous suspension (prepared from a 25% wettable powder (Example F3, b)) or in the form of an emulsion (prepared from a 25% emulsifiable concentrate (Example F1, c)) (500 liters of water/ha). The rate of application is 500 g of active substance/ha. The test plants are then grown in the greenhouse under optimum conditions. The evaluation is carried out 3 weeks after application, sing a scale of nine ratings (1=total damage, 9=no action). Ratings of from 1 to 4 (especially from 1 to 3) indicate good to very good herbicidal action. Test plants: Avena (Ave), Lolium (Lol), Setaria (Set).

Lolium (Lol) [21] = experiment: as above; parameters: key: 1=total damage; 9=no action; conditions: 500 g of active substance/ha; MERGE oil additive 0.7% by weight of the spray mixture; evaluation 3 weeks after application; scale of nine ratings
Experimental: as §4

Setaria (Set) [22] = experiment: as above; parameters: key: 1=total damage; 9=no action; conditions: 500 g of active substance/ha; MERGE oil additive 0.7% by weight of the spray mixture; evaluation 3 weeks after application; scale of nine ratings
Experimental: as §4

Compound	Post-emergence action, rating, Ave (Avena (Ave) [17])	Post-emergence action, rating, Lol (Lolium (Lol) [18])	Post-emergence action, rating, Set (Setaria (Set) [19])	further results
Cc1cc(C)c(-c2c(OC(=O)C(C)(C)C)n3n(c2=O)CCCC3)c(C)c1 [compound A, reference compound]	–	–	–	Pre-emergence action rating, Alo (Alopecurus (Alo) [1]): 2; Pre-emergence action, rating, Ave (Avena (Ave) [2]): 4; Pre-emergence action rating, Bra (Brachiaria (Bra) [3]): 3; Pre-emergence action rating, Ech (Echinochloa (Ech)): 5; Pre-emergence action, rating, Lol (Lolium (Lol) [4]): 1; Pre-emergence action rating, Pan (Panicum (Pan) [5]): 1; Pre-emergence action, rating, Set (Setaria (Set) [6]): 2; Pre-emergence action rating, Sor (Sorghum (Sor) [7]): 4; Pre-emergence action rating, Dig (Digitaria (Dig) [8]): 4; Post-emergence action rating, Alo (Alopecurus (Alo) [9]): 3; Post-emergence action, rating, Ave (Avena (Ave) [10]): 3; Post-emergence action rating, Bra (Brachiaria (Bra) [11]): 2; Post-emergence action rating, Ech (Echinocloa (Ech)): 1; Post-emergence action, rating, Lol (Lolium (Lol) [12]): 2; Post-emergence action rating, Pan (Panicum (Pan) [13]): 1; Post-emergence action, rating, Set (Setaria (Set) [14]): 2; Post-emergence action rating, Sor (Sorghum (Sor) [15]): 3; Post-emergence action rating, Dig (Digitaria (Dig) [16]): 2
CCc1cc(C)cc(CC)c1-c1c(O)n2n(c1=O)CC(OC(C)C(=O)OC)CC2 (stereo not drawn) [1.26]	1	2	1	–
CCc1cc(C)cc(CC)c1-c1c(O)n2n(c1=O)CC(=NOC)CC2 [1.30]	1	1	1	–
CCc1cc(C)cc(CC)c1-c1c(O)n2n(c1=O)CC(O)C(Cl)C2 (stereo not drawn) [1.10]	1	1	1	–
CCc1cc(C)cc(CC)c1-c1c(OC(=O)C(C)(C)C)n2n(c1=O)CCC(F)(F)CC2 [1.43]	1	2	2	–
CCc1cc(C)cc(CC)c1-c1c(O)n2n(c1=O)CC(OCCOCCOC)C(O)C2 (stereo not drawn) [1.35]	1	1	1	Pre-emergence action, rating, Ave (Avena (Ave) [20]): 1; Pre-emergence action, rating, Lol (Lolium (Lol) [21]): 1; Pre-emergence action, rating, Set (Setaria (Set) [22]): 1
CCc1cc(C)cc(CC)c1-c1c(O)n2n(c1=O)CC(OCC(C)C)CC2 (stereo not drawn) [1.11]	1	1	1	–
CCc1cc(C)cc(CC)c1-c1c(O)n2n(c1=O)CC(O)C(O)C2 (stereo not drawn) [1.39]	1	1	1	–
